Measurements as given in PubChem BioAssay AID2305 (GlaxoSmithKline (GSK), 2010).
Where “and” joins values, the source holds several entries; their conditions need not be identical. Equal values may be shown once.

System: P. falciparum 3D7 growth, pLDH absorbance
Assay: blood-stage malaria parasite growth potency – strain 3D7, dose response (AID 2305)

| SMILES | IC50 |
| --- | --- |
| CC(C)CNCc1ccc(-c2ccccc2CN(C(=O)NCCc2ccccc2)C2CCN(Cc3ccccc3)CC2)cc1 | 0.88 µM |
| COC(=O)c1cccc(CNCc2cccc(-c3cccc(-c4nc5ccc(C(F)(F)F)cc5[nH]4)c3)c2)c1 | 0.17 µM |
| Cc1cccc2[nH]c(-c3ccc(-c4cccc(CNCCc5ccncc5)c4)s3)nc12 | 0.14 µM |
| COc1cc(OC)c2c(c1Cl)O[C@]1(C2=O)C(=O)C(Cc2ccccc2)(Cc2ccccc2)C(=O)C[C@H]1C | 0.97 µM |
| Cc1ccc2nc(Nc3ccc(Nc4nc5ccc(C)cc5[nH]4)c(C)c3)[nH]c2c1 | 0.77 µM |
| COc1ccc(NC(=O)[C@H](CC(C)C)Nc2ccnc(NCCc3ccc(F)cc3)n2)cc1 | 1.6 µM |
| COc1ccc(CNC(=O)C2Cc3ccccc3CN2Cc2ccc3ccccc3c2)cc1 (stereo unspecified) | 1.1 µM |
| CCCc1cc(=O)[nH]c(-n2nc(C)cc2NC(=O)c2cc3ccccc3o2)n1 | 1.11 µM |
| CC[C@H]1CN(CCCC(=O)c2ccccc2)CC[C@H]1CCCc1ccnc2ccc(OC(=O)c3ccccc3)cc12 | 0.83 µM |
| Cc1ccc2ncc(Cl)c(CCN3CCC(NCc4ccc5c(n4)NC(=O)CS5)CC3)c2n1 | 1.1 µM |
| O=C(NCCCCN1CCN(c2cccc3ccccc23)CC1)c1ccc(NC(=O)c2ccc(Cl)cc2)cc1 | 0.36 µM |
| CC(C)c1ccc(C=CC(=O)NC2CCC(CN3CCC(c4c[nH]c5ccccc45)CC3)CC2)cc1 (stereo unspecified) | 0.81 µM |
| COc1ccc(-c2ccc(NC(=O)c3ccc(F)cc3)cc2)cc1CN1CCCN(C)CC1 | 0.66 µM |
| O=C(/C=C/c1c(Cl)cccc1Cl)NC1CCC(CN2CCC(c3c[nH]c4ccccc34)CC2)CC1 (stereo unspecified) | 0.37 µM and 0.81 µM |
| O=C(NCCc1ccccc1)N(Cc1ccccc1-c1ccc(CNC2CCCC2)cc1)C1CCN(Cc2ccccc2)CC1 | 1.13 µM |
| CCN(CC)CCN(Cc1ccc(-c2ccc(C(F)(F)F)cc2)cc1)C(=O)Cn1c(CCc2cccc(F)c2F)c(C)c(=O)c2ccccc21 | 0.94 µM |
| Oc1cccc(Nc2nc(NCc3ccccc3)c3ccccc3n2)c1 | 0.04 µM |
| Cc1ccc(NC(=O)c2ccc(CN3CCCN(Cc4cccc(O)c4)CC3)cc2)cc1 | 0.74 µM |
| COc1cc(NCCCNCc2cn(Cc3cc(Br)cc(Br)c3)c3ccccc23)nc2ccccc12 | 0.18 µM |
| CCCCN(CCCC)CCC(O)C(=Cc1ccc(Cl)cc1Cl)c1ccc(C(F)(F)F)cc1N (stereo unspecified) | 0.19 µM |
| CCCCNc1c(C(=O)OCC)c(C)nc2c1[nH]c1ccccc12 | 0.68 µM |
| Cc1ccc(Nc2nnc(SCC(=O)Nc3ccc(CN4CCCC4)cc3)s2)cc1 | 1.21 µM |
| CC(C)(CNC(=O)/C=C/c1ccc(C(F)(F)F)cc1)CNc1cc(=O)c2ccccc2[nH]1 | 0.91 µM |
| Cc1cccc2[nH]c(-c3cccc(-c4ccc(NC(=O)Nc5ccc(Cl)cc5)cc4)c3)nc12 | 0.2 µM |

| SMILES | IC50 |
| --- | --- |
| Cc1cccc(Cn2c(Cc3ccccc3)nnc2Sc2ccc([N+](=O)[O-])c(C#N)c2)c1 | 1.14 µM |
| COC(=O)[C@@H](NC(=O)[C@H](Cc1ccc(OC)c(OC)c1)Nc1ccc(C#N)c2ccccc12)c1ccc(O)cc1 | 0.75 µM |
| CCCNC(=O)Nc1cc2cc(-c3cccc(CN4CCCCC4)c3)ccc2n2c(C)nnc12 | 1.11 µM |
| Cc1cc(C)c(C(=O)Nc2n[nH]c3nnc(-c4cccc(F)c4F)cc23)c(C)c1 | 1.07 µM |
| O=c1ccc2ccc(F)c3c2n1CC3CN1CCC(NCc2ccc(-c3cccc(Cl)c3)nc2)CC1 (stereo unspecified) | 0.99 µM |
| CN(C)CCNCc1ccc(-c2ccc3c(Nc4ccc(Oc5ccccc5)cc4)ccnc3c2)o1 | 0.28 µM |
| Cc1[nH]c(C)c(-c2csc3ccccc23)c(=O)c1Cl | 1.02 µM |
| O=S(=O)(Nc1cccc(CCN2CCCCC2CCN2CCCC2)c1)c1ccc2ccccc2c1 (stereo unspecified) | 1.07 µM |
| CC(C)(C)c1cc(CN2CCN(Cc3ccccc3)CC2)cc(C(C)(C)C)c1O | 0.77 µM |
| Cc1ccc(Oc2cnn(C)c(=O)c2Nc2cccc(C(=O)NCCc3ccccn3)c2)c(C)c1 | 0.49 µM |
| O=C(NC1CCC(CN2CCC(c3c[nH]c4ccccc34)CC2)CC1)c1cc2cccc([N+](=O)[O-])c2[nH]1 (stereo unspecified) | 0.34 µM |
| CCN(CC)CCN(Cc1ccc(-c2ccc(C(F)(F)F)cc2)cc1)C(=O)Cn1c(CCc2cccc(F)c2F)cc(=O)c2c1CCCC2 | 0.87 µM |
| CON=Cc1ccn(-c2ccc(O)c3c2C[C@H]2C[C@H]4[C@H](N(C)C)C(=O)C(C(N)=O)=C(O)[C@@]4(O)C(=O)C2=C3O)c1 | 0.77 µM |
| COc1ccc(CNCc2ccccc2)cc1-c1ccc(S(=O)(=O)NCCN2CCCC2)cc1 | 0.82 µM |
| O=S1c2ccccc2Sc2ccccc21 | 0.17 µM |
| COc1cccc(C=Cc2nc(=O)c3ccccc3o2)c1OC | 0.06 µM |
| CO/C(=C\C=C\c1cc2cc(Cl)c(Cl)cc2[nH]1)C(=O)NCC(C)(C)CN(C)C | 1.16 µM |
| Cc1cc(OCCCN2CCC(NS(=O)(=O)c3cccc(Br)c3)C2)c2ccccc2n1 (stereo unspecified) | 1.21 µM |
| CCN(CC)C(C)(C)CN(Cc1ccc(-c2ccc(C(F)(F)F)cc2)cc1)C(=O)Cn1c(CCc2cccc(F)c2F)nc(=O)c2ccccc21 | 0.96 µM |
| CCN(CCCN1CCCCC1)c1cc(C)nc(Nc2cc(Cl)ccc2C)n1 | 0.63 µM |
| O=C(NCCN1CCOCC1)c1ccc(N2CCC(Oc3ccc4ccccc4c3)CC2)nc1 | 0.76 µM |
| O=C(Nc1ccc(OC2CCN(Cc3ccc(F)cc3)CC2)c(Cl)c1)c1ccccc1 | 0.79 µM |
| CC(C)NC(=O)c1cccc(-c2cccc(OCCN3CCSCC3c3ccccc3)c2)c1 (stereo unspecified) | 1.01 µM |
| CCOC(=O)c1c[nH]c2c(ccc3ccccc32)c1=O | 0.16 µM |

| SMILES | IC50 |
| --- | --- |
| COc1cc(Nc2nccc(NCC(O)c3ccc(C(F)(F)F)cc3)n2)cc(OC)c1OC (stereo unspecified) | 0.92 µM |
| CCCc1cc(OC)c(C[C@H]2c3cc(O)c(Cl)cc3CCN2C)cc1OC | 0.58 µM |
| O=S(=O)(Nc1ccc(CCN2CCCCC2CCN2CCCC2)cc1)c1ccc(-c2ccccc2)cc1 (stereo unspecified) | 0.93 µM |
| Cc1cc(=O)[nH]c(NC#N)n1 | 0.17 µM |
| COc1cccc(-c2cc(C(F)(F)F)n3ncc(C(=O)Nc4cc(C)ccc4O)c3n2)c1 | 0.16 µM |
| O=C(Nc1ccc(C(F)(F)F)cc1)c1cc(Br)cnc1NCCCn1ccnc1 | 0.97 µM |
| CCCCn1c(SC(C)C)nc2c(c1=O)C1(CCCCC1)Cc1ccccc1-2 | 0.67 µM |
| COc1ccc(NC(=O)/C=C/c2ccccc2Cl)cc1OCCN1CCC(NCc2ccccc2)CC1 | 0.35 µM |
| CCOC(=O)c1c(CCc2ccc(C(F)(F)F)cc2)nc2c(c1-c1ccc(C(=O)N[C@@H](C)c3ccncc3)cc1)C(=O)N1CCC[C@@H]21 | 0.92 µM |
| COc1cc(NC2=C(c3ccccc3)C(=O)c3ccccc32)ccn1 | 0.36 µM |
| CS(=O)(=O)Nc1cccc(-c2cnc3[nH]cc(-c4ccc(C(=O)O)cc4)c3c2)c1 | 0.86 µM |
| CN1CC=C(c2c[nH]c3ccc(Sc4ccccc4)cc23)CC1 | 0.36 µM |
| Nc1cccc(CNCc2cccc(-c3cccc(-c4nc5ccccc5[nH]4)c3)c2)c1 | 0.61 µM |
| CC(C)(CNC(=O)C1CCN(Cc2ccc(Cl)cc2)CC1)c1nc(-c2ccc(Cl)c(O)c2)c(-c2ccncc2)[nH]1 | 0.62 µM |
| CC1(C)[C@H]2CC[C@@H](CNc3nc(NCC(=O)Nc4ccc5ccccc5c4)nc(N4CCC(N5CCCC5)CC4)n3)[C@@H]1C2 | 1.19 µM |
| CN1CCN(c2ccnc3ccc(NC(=O)Cc4ccc(-c5ccncc5)c5ccccc45)cc23)CC1 | 0.2 µM |
| O=C(C=NO)Nc1ccccc1[N+](=O)[O-] | 0.79 µM |
| COc1ccc(-c2cccc(CNC3CCN(CC4Cn5c(=O)ccc6ccc(F)c4c65)CC3)c2)cc1 (stereo unspecified) | 1.09 µM |
| COc1cccc(CC(=O)NC2CCN(c3ccnc4cc(Cl)ccc34)C2)c1 (stereo unspecified) | 0.7 µM |
| O=C(Nc1ccc(-c2nc3ccccc3[nH]2)cc1)C1CCCN(CC2CC2)C1 (stereo unspecified) | 0.95 µM |
| CC(O)C1CCCCN1C(=O)c1ccc(-c2ccc(-c3nc4ccc(F)cc4[nH]3)cc2)cc1 (stereo unspecified) | 0.44 µM |
| Cc1c(CNCCCNc2nc3ccccc3[nH]2)[nH]c2cc(Cl)cc(Cl)c12 | 0.23 µM |
| COc1cc(Cc2cnc(N)nc2N)cc(OCCCCCC(N)=O)c1OC | 1.19 µM |
| CCOC(=O)c1[nH]c2cc(Cl)cc(Cl)c2c1/C=C/C(=O)Nc1ccc(-c2cnc(NC(C)=O)[nH]2)cc1 | 1.02 µM |

| SMILES | IC50 |
| --- | --- |
| Fc1cc(Cl)ccc1Nc1ccnc2cc(-c3scnc3CNCCN3CCOCC3)ccc12 | 0.85 µM |
| COc1cc2c(cc1OC)C(C)(C)CN1Cc3c(c(CO)c(OC)c(OC)c3OC)CC21 (stereo unspecified) | 0.78 µM |
| COCC(=O)N(Cc1ccccc1-c1cccc(CNCCc2ccccc2)c1)C1CCN(Cc2ccccc2)CC1 | 1.1 µM |
| COc1ccc(Cl)c(CC2c3cc(O)c(Cl)cc3CCN2C)c1 (stereo unspecified) | 0.7 µM |
| O=C(Nc1ccc(CN2CCCCC2)cc1)c1ccc(COc2ccc([N+](=O)[O-])cc2)o1 | 1 µM |
| c1ccc(-c2nc3ccccc3[nH]2)c(Nc2ccnc3cc(-c4nccs4)ccc23)c1 | 0.74 µM |
| Cc1ccc(NC(=O)c2cc(Br)cc(N3CCC(N(C)C)CC3)c2)cc1F | 0.84 µM |
| Cc1cc(N[C@@H](Cc2ccccc2)C(=O)NCc2cccc(F)c2)nc(NCCCOC(C)C)n1 | 0.92 µM |
| O=C(Nc1cccc(-c2cccc(-c3ccc(F)cc3)n2)c1)c1ccc([N+](=O)[O-])o1 | 0.36 µM |
| COc1ccc2nccc(N(C)CC3(O)CCC(NCc4cc5c(cn4)OCCO5)CC3)c2n1 (stereo unspecified) | 0.68 µM |
| CO/C(=C\C=C\c1cc2cc(Cl)c(Cl)cc2[nH]1)C(=O)NC1C[C@H]2CCC[C@@H](C1)N2C (stereo partly specified) | 1 µM |
| Cn1nc(-c2ccc(CN[C@@H]3CCc4ccc(O)cc43)cc2)c2cnc(NC3CCCC3)nc21 | 1.12 µM |
| COc1ccc(N2CCN(CCCCNC(=O)c3ccc(NC(=O)c4ccc(Cl)c(Cl)c4)cc3)CC2)c(OC)c1 | 0.21 µM |
| CC(C)C(NC(=O)c1c(F)cccc1F)C(=O)Nc1ccc(Cc2nc3ccccc3s2)cc1 (stereo unspecified) | 0.45 µM |
| CCN(CC)C(=NCCCCCCN=C(/N=C(/N)Nc1ccc(C)cc1)N(CC)CC)/N=C(/N)Nc1ccc(C)cc1 | 0.54 µM |
| COc1cc(N(Cc2ccccc2C)S(=O)(=O)Cc2ccccc2[N+](=O)[O-])c(OC)cc1Cl | 1.01 µM |
| O=c1cc(NCCCCNCc2cccc(C(F)(F)F)c2)[nH]c2ccccc12 | 0.79 µM |
| O=S(=O)(c1cccc(C(F)(F)F)c1)N1CCC(CO)(Cc2cccc(C(F)(F)F)c2)CC1 | 0.96 µM |
| COc1cc(-c2nc(-c3ccccc3)c(-c3ccccc3)[nH]2)cc(OC)c1O | 0.77 µM |
| C#CC[C@@H](NC(N)=O)C(=O)O | 0.19 µM |
| c1ccc(Oc2ccc(Nc3ccnc4cc(-c5ccc(CNCCN6CCOCC6)o5)ccc34)cc2)nc1 | 1.44 µM |
| Nc1nccc2ccc(-c3ccc(Oc4ccccc4)cc3)cc12 | 0.28 µM |
| CCCCCCCCCCNCC(O)c1ccc(O)c(C(=O)OC)c1 (stereo unspecified) | 0.72 µM |
| COCC(C)n1c(C)cc(C(=O)CSc2nnc(Nc3ccccc3)s2)c1C (stereo unspecified) | 0.74 µM |
